Broadly, the IC50 is the midpoint of a concentration-inhibition curve.

The target of the assay is XIAP BIR3 (N-His-Tb-BIR3(241-356, XIAP)) (Homo sapiens (Human), UniProt P98170). The format is binding. Conditions: 130 nM N-His-Tb-BIR3(241-356, XIAP), 1.4 nM fluoresceinated modified SMAC peptide, 60 minutes room temperature; read-out: XIAP BIR3 FPA IC50.
XIAP BIR3 (N-His-Tb-BIR3(241-356, XIAP)), sequence (P98170 241-356): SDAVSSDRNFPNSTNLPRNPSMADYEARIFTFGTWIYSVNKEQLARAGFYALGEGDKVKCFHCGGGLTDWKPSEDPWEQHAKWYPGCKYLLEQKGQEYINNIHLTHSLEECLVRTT
With `CN[C@@H](C)C(=O)N[C@H](C(=O)N1C[C@@H](NC(=O)c2ccc(CN(Cc3ccccc3)C(=O)[C@@H]3Cc4ccccc4CN3C(=O)[C@@H](NC(=O)[C@H](C)NC)C(C)(C)C)cc2)C[C@H]1C(=O)N[C@@H]1CCCc2ccccc21)C(C)(C)C` [Example 13, (S)-N-Benzyl-2-((S)-3,3-dimethyl-2-((S)-2-(methylamino)propanamido)butanoyl)-N-(4-(((3S,5S)-1-((S)-3,3-dimethyl-2-((S)-2-(methylamino)propanamido)butanoyl)-5-(((R)-1,2,3,4-tetrahydro-naphthalen-1-yl)carbamoyl)pyrrolidin-3-yl)carbamoyl)benzyl)-1,2,3,4-tetra-hydroisoquinoline-3-carboxamide], the IC50 worked out at 0.04 µM.
Then `CN[C@@H](C)C(=O)N[C@H](C(=O)N1C[C@@H](NC(=O)c2ccc(CN(Cc3ccc4ccccc4c3)C(=O)[C@@H]3Cc4ccccc4CN3C(=O)[C@@H](NC(=O)[C@H](C)NC)C(C)(C)C)cc2)C[C@H]1C(=O)N[C@@H]1CCCc2ccccc21)C(C)(C)C` [Example 14, (S)-2-((S)-3,3-Dimethyl-2-((S)-2-(methyl-amino)propanamido)butanoyl)-N-(4-(((3S,5S)-1-((S)-3,3-dimethyl-2-((S)-2-(methylamino)propanamido)butanoyl)-5-(((R)-1,2,3,4-tetra-hydronaphthalen-1-yl)carbamoyl)pyrrolidin-3-yl)carbamoyl)benzyl)-N-(naphthalen-2-ylmethyl)-1,2,3,4-tetrahydro-isoquinoline-3-carboxamide], with 0.04 µM.
Then `CN[C@@H](C)C(=O)N[C@H](C(=O)N1C[C@@H](NC(=O)c2ccc(CN(C(=O)[C@@H]3Cc4ccccc4CN3C(=O)[C@@H](NC(=O)[C@H](C)NC)C(C)(C)C)[C@H](C)c3ccc4ccccc4c3)cc2)C[C@H]1C(=O)N[C@@H]1CCCc2ccccc21)C(C)(C)C` [Example 15, (S)-2-((S)-3,3-Dimethyl-2-((S)-2-(methylamino)propanamido)butanoyl)-N-(4-(((3S,5S)-1-((S)-3,3-dimethyl-2-((S)-2-(methylamino)propanamido)butanoyl)-5-(((R)-1,2,3,4-tetra-hydronaphthalen-1-yl)carbamoyl)pyrrolidin-3-yl)carbamoyl)benzyl)-N-((R)-1-(naphthalen-2-yl)ethyl)-1,2,3,4-tetrahydro-isoquinoline-3-carboxamide], with 0.09 µM; and `CN[C@@H](C)C(=O)N[C@H](C(=O)N1CCc2ccccc2[C@H]1C(=O)N(CCc1ccccc1)Cc1ccc(C(=O)NC2C[C@@H](C(=O)NC3CCCc4ccccc43)N(C(=O)[C@@H](NC(=O)[C@H](C)NC)C(C)(C)C)C2)cc1)C(C)(C)C` (stereo partly shown) [Example 16], with 0.07 µM; and `CN[C@@H](C)C(=O)N[C@H](C(=O)N1C[C@@H](NC(=O)c2ccc(CN(C(=O)[C@@H]3Cc4ccccc4CN3C(=O)[C@@H](NC(=O)[C@H](C)NC)C(C)(C)C)[C@@H](C)c3cccc(Cl)c3)cc2)C[C@H]1C(=O)N[C@@H]1CCCc2ccccc21)C(C)(C)C` [Example 18, (S)-N-((S)-1-(3-Chlorophenyl)ethyl)-2-((S)-3,3-dimethyl-2-((S)-2-(methylamino)propanamido)butanoyl)-N-(4-(((3S,5S)-1-((S)-3,3-dimethyl-2-((S)-2-(methylamino)propanamido)butanoyl)-5-(((R)-1,2,3,4-tetrahydro-naphthalen-1-yl)carbamoyl)pyrrolidin-3-yl)carbamoyl)benzyl)-1,2,3,4-tetrahydro-isoquinoline-3-carboxamide], with 0.12 µM.
Then `CN[C@@H](C)C(=O)N[C@H](C(=O)N1CCc2ccccc2[C@H]1C(=O)N(Cc1ccc(C(=O)N[C@H]2C[C@@H](C(=O)N[C@@H]3CCCc4ccccc43)N(C(=O)[C@@H](NC(=O)[C@H](C)NC)C(C)(C)C)C2)cc1)[C@H](C)c1ccccc1F)C(C)(C)C` [Example 19, (S)-2-((S)-3,3-Dimethyl-2-((S)-2-(methylamino)propanamido)butanoyl)-N-(4-(((3S,5S)-1-((S)-3,3-dimethyl-2-((S)-2-(methylamino)propanamido)butanoyl)-5-(((R)-1,2,3,4-tetra-hydronaphthalen-1-yl)carbamoyl)pyrrolidin-3-yl)carbamoyl)benzyl)-N-((R)-1-(2-fluorophenyl)ethyl)-1,2,3,4-tetrahydro-isoquinoline-1-carboxamide], with 0.29 µM; and `CC[C@H](c1ccccc1)N(Cc1ccc(C(=O)N[C@H]2C[C@@H](C(=O)N[C@@H]3CCCc4ccccc43)N(C(=O)[C@@H](NC(=O)[C@H](C)NC)C(C)(C)C)C2)cc1)C(=O)[C@@H]1Cc2ccccc2CN1C(=O)[C@@H](NC(=O)[C@H](C)NC)C(C)(C)C` [Example 20, (S)-2-((S)-3,3-Dimethyl-2-((S)-2-(methylamino)propanamido)butanoyl)-N-(4-(((3S,5S)-1-((S)-3,3-dimethyl-2-((S)-2-(methylamino)propanamido)butanoyl)-5-(((R)-1,2,3,4-tetrahydro-naphthalen-1-yl)carbamoyl)pyrrolidin-3-yl)carbamoyl)benzyl)-N-((R)-1-phenylpropyl)-1,2,3,4-tetra-hydroisoquinoline-3-carboxamide], with 0.11 µM; and `CN[C@@H](C)C(=O)N[C@H](C(=O)N1C[C@@H](NC(=O)c2ccc(CN(C(=O)[C@@H]3Cc4ccccc4CN3C(=O)[C@@H](NC(=O)[C@H](C)NC)C(C)(C)C)[C@H](C)C(c3ccccc3)c3ccccc3)cc2)C[C@H]1C(=O)N[C@@H]1CCCc2ccccc21)C(C)(C)C` [Example 21, (S)-2-((S)-3,3-Dimethyl-2-((S)-2-(methylamino)propanamido)butanoyl)-N-(4-(((3S,5S)-1-((S)-3,3-dimethyl-2-((S)-2-(methylamino)propanamido)butanoyl)-5-(((R)-1,2,3,4-tetra-hydronaphthalen-1-yl)carbamoyl)pyrrolidin-3-yl)carbamoyl)benzyl)-N-((R)-1,1-diphenylpropan-2-yl)-1,2,3,4-tetrahydro-isoquinoline-3-carboxamide], with 0.29 µM.
For `CN[C@@H](C)C(=O)N[C@H](C(=O)N1C[C@@H](NC(=O)c2ccc(CN(C(=O)[C@@H]3Cc4ccccc4CN3C(=O)[C@@H](NC(=O)[C@H](C)NC)C(C)(C)C)[C@H](C)c3ccccc3)cc2)C[C@H]1C(=O)N[C@@H]1CCCc2ccccc21)C(C)(C)C` [Example 23, (S)-2-((S)-3,3-Dimethyl-2-((S)-2-(methylamino)propanamido)butanoyl)-N-(4-(((3S,5S)-1-((S)-3,3-dimethyl-2-((S)-2-(methylamino)propanamido)butanoyl)-5-(((R)-1,2,3,4-tetra-hydronaphthalen-1-yl)carbamoyl)pyrrolidin-3-yl)carbamoyl)benzyl)-N-((R)-1-phenylethyl)-1,2,3,4-tetra-hydroisoquinoline-3-carboxamide], the IC50 was found to be 0.12 µM.
The same measure for `CN[C@@H](C)C(=O)N[C@H](C(=O)N1C[C@@H](NC(=O)c2ccc(CN(C(=O)[C@@H]3Cc4ccccc4CN3C(=O)[C@@H](NC(=O)[C@H](C)NC)C(C)(C)C)[C@H](C)c3ccccc3OC)cc2)C[C@H]1C(=O)N[C@@H]1CCCc2ccccc21)C(C)(C)C` [Example 24, (S)-2-((S)-3,3-Dimethyl-2-((S)-2-(methylamino)propanamido)butanoyl)-N-(4-(((3S,5S)-1-((S)-3,3-dimethyl-2-((S)-2-(methylamino)propanamido)butanoyl)-5-(((R)-1,2,3,4-tetrahydro-naphthalen-1-yl)carbamoyl)pyrrolidin-3-yl)carbamoyl)benzyl)-N-((R)-1-(2-methoxyphenyl)ethyl)-1,2,3,4-tetrahydro-isoquinoline-3-carboxamide]: 0.13 µM.
Then `CN[C@@H](C)C(=O)N[C@H](C(=O)N1C[C@@H](NC(=O)c2ccc(CN(C(=O)[C@@H]3Cc4ccccc4CN3C(=O)[C@@H](NC(=O)[C@H](C)NC)C(C)(C)C)[C@H](C)Cc3ccccc3F)cc2)C[C@H]1C(=O)N[C@@H]1CCCc2ccccc21)C(C)(C)C` [Example 25, (S)-2-((S)-3,3-Dimethyl-2-((S)-2-(methylamino)propanamido)butanoyl)-N-(4-(((3S,5S)-1-((S)-3,3-dimethyl-2-((S)-2-(methylamino)propanamido)butanoyl)-5-(((R)-1,2,3,4-tetrahydro-naphthalen-1-yl)carbamoyl)pyrrolidin-3-yl)carbamoyl)benzyl)-N-((R)-1-(2-fluorophenyl)propan-2-yl)-1,2,3,4-tetrahydro-isoquinoline-3-carboxamide], with 0.06 µM; and `CN[C@@H](C)C(=O)N[C@H](C(=O)N1CC(NC(=O)c2ccc(CN(C(=O)[C@@H]3Cc4ccccc4CN3C(=O)[C@@H](NC(=O)[C@H](C)NC)C(C)(C)C)C(C)c3ccccc3Cl)cc2)C[C@H]1C(=O)NC1CCCc2ccccc21)C(C)(C)C` (stereo partly drawn) [Example 26, (3S)-N-(1-(2-Chlorophenyl)ethyl)-2-((S)-3,3-dimethyl-2-((S)-2-(methylamino)propanamido)butanoyl)-N-(4-(((3S,5S)-1-((S)-3,3-dimethyl-2-((S)-2-(methylamino)propanamido)butanoyl)-5-(((R)-1,2,3,4-tetrahydro-naphthalen-1-yl)carbamoyl)pyrrolidin-3-yl)carbamoyl)benzyl)-1,2,3,4-tetra-hydroisoquinoline-3-carboxamide], with 0.19 µM; and `CN[C@@H](C)C(=O)N[C@H](C(=O)N1CCc2ccccc2[C@H]1C(=O)N(Cc1ccc(C(=O)N[C@H]2C[C@@H](C(=O)N[C@@H]3CCCc4ccccc43)N(C(=O)[C@@H](NC(=O)[C@H](C)NC)C(C)(C)C)C2)cc1)[C@H](C)Cc1ccccc1F)C(C)(C)C` [Example 27, (S)-2-((S)-3,3-Dimethyl-2-((S)-2-(methylamino)propanamido)butanoyl)-N-(4-(((3S,5S)-1-((S)-3,3-dimethyl-2-((S)-2-(methylamino)propanamido)butanoyl)-5-(((R)-1,2,3,4-tetrahydro-naphthalen-1-yl)carbamoyl)pyrrolidin-3-yl)carbamoyl)benzyl)-N-((R)-1-(2-fluorophenyl)propan-2-yl)-1,2,3,4-tetrahydro-isoquinoline-1-carboxamide], with 0.09 µM.

Source of the values: patent US9603889B2, “IAP antagonists” (BRISTOL-MYERS SQUIBB COMPANY, priority 2012, dated 2017).
